Data as given in PubChem BioAssay AID248 (DTP/NCI, 2004).
Toxic doses and inconclusive results are not listed. Rule as the data show it: active = T/C of 150% or more; inactive = T/C below 125%.

Tested on: L1210 leukemia ip in BDF1 mice, survival T/C
Test: NCI In Vivo Anticancer Drug Screen. Data for tumor model L1210 Leukemia (intraperitoneal) in B6D2F1 (BDF1) mice
Conditions: endpoint: mean survival time, higher = longer survival
Outline: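 Read-out is survival time, reported as the treated-group measurement over the vehicle-control measurement.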

[1] = dose: 75.0 mg/kg/injection, schedule: Q01DX001 (ip), vehicle: saline
[2] = dose: 100.0 mg/kg/injection, schedule: Q01DX001 (ip), vehicle: other
[3] = dose: 200.0 mg/kg/injection, schedule: Q01DX001 (ip), vehicle: other
[4] = dose: 400.0 mg/kg/injection, schedule: Q01DX001 (ip), vehicle: other
[5] = dose: 100.0 mg/kg/injection, schedule: Q01DX009 (ip), vehicle: saline with Tween-80
[6] = dose: 100.0 mg/kg/injection, schedule: Q04DX003 (ip), vehicle: saline with Tween-80
[7] = dose: 200.0 mg/kg/injection, schedule: Q01DX009 (ip), vehicle: saline with Tween-80
[8] = dose: 200.0 mg/kg/injection, schedule: Q04DX003 (ip), vehicle: saline with Tween-80
[9] = dose: 100.0 mg/kg/injection, schedule: Q01DX001 (ip), vehicle: saline
[10] = dose: 200.0 mg/kg/injection, schedule: Q01DX001 (ip), vehicle: saline
[11] = dose: 400.0 mg/kg/injection, schedule: Q01DX001 (ip), vehicle: saline
[12] = dose: 100.0 mg/kg/injection, schedule: Q01DX009 (ip), vehicle: saline
[13] = dose: 200.0 mg/kg/injection, schedule: Q01DX009 (ip), vehicle: saline
[14] = dose: 400.0 mg/kg/injection, schedule: Q01DX009 (ip), vehicle: saline
[15] = dose: 100.0 mg/kg/injection, schedule: Q04DX003 (ip), vehicle: Klucel (hydroxypropylcellulose) (HPC)
[16] = dose: 200.0 mg/kg/injection, schedule: Q04DX003 (ip), vehicle: Klucel (hydroxypropylcellulose) (HPC)
[17] = dose: 400.0 mg/kg/injection, schedule: Q04DX003 (ip), vehicle: Klucel (hydroxypropylcellulose) (HPC)
[18] = dose: 50.0 mg/kg/injection, schedule: Q01DX001 (ip), vehicle: saline

Measured: T/C

OCC(O)C(O)C(O)C(Sc1ccccc1)Sc1ccccc1 (configuration not stated)
inactive: [1] 97 % of control | [2] 95 % of control | dose: 150.0 mg/kg/injection, schedule: Q01DX001 (ip), vehicle: saline 102 % of control | [3] 101 % of control | dose: 300.0 mg/kg/injection, schedule: Q01DX001 (ip), vehicle: saline 102 % of control | [4] 97 % of control

N=c1c2ncn(C3CCCC3)c2ncn1O
inactive: dose: 50.0 mg/kg/injection, schedule: Q01DX009 (ip), vehicle: saline with Tween-80 114 % of control | dose: 50.0 mg/kg/injection, schedule: Q04DX003 (ip), vehicle: saline with Tween-80 106 % of control | dose: 100.0 mg/kg/injection, schedule: Q01DX001 (ip), vehicle: saline with Tween-80 98 % of control | [5] 103 % of control | [6] 95 % of control | dose: 200.0 mg/kg/injection, schedule: Q01DX001 (ip), vehicle: saline with Tween-80 98 % of control | [7] 115 % of control | [8] 94 % of control

Cc1ccc(NC(=O)/C=N/O)cc1C
inactive: [9] 104 % of control | [10] 102 % of control | [11] 90 % of control

CC1(N)CCOC1=O (configuration not stated)
inactive: [12] 93 % of control | [13] 93 % of control | [14] 93 % of control

Cc1cccc(NNC(N)=O)c1
inactive: dose: 55.0 mg/kg/injection, schedule: Q01DX Z (ip), vehicle: saline 103 % of control | dose: 83.0 mg/kg/injection, schedule: Q01DX Z (ip), vehicle: saline 97 % of control | dose: 125.0 mg/kg/injection, schedule: Q01DX Z (ip), vehicle: saline 101 % of control

CCCCNC(=O)Nc1ccc(C(=O)OCC)cc1
inactive: dose: 100.0 mg/kg/injection, schedule: Q01DX009 (ip), vehicle: Klucel (hydroxypropylcellulose) (HPC) 98 % of control | [15] 95 % of control | dose: 200.0 mg/kg/injection, schedule: Q01DX009 (ip), vehicle: Klucel (hydroxypropylcellulose) (HPC) 98 % of control | [16] 96 % of control | dose: 400.0 mg/kg/injection, schedule: Q01DX009 (ip), vehicle: Klucel (hydroxypropylcellulose) (HPC) 88 % of control | [17] 94 % of control

O=[N+]([O-])c1cc(Cl)ccc1N1CCCC1
inactive: [5] 89 % of control | [7] 99 % of control

CC(=O)N(C1=C(Cl)C(=O)c2ccccc2C1=O)c1ccc(Cl)cc1
inactive: dose: 75.0 mg/kg/injection, schedule: Q01DX001 (ip), vehicle: carboxymethylcellulose (CMC) 93 % of control | dose: 150.0 mg/kg/injection, schedule: Q01DX001 (ip), vehicle: carboxymethylcellulose (CMC) 92 % of control

CN(C)N=Nc1ccc(C(=O)N/N=C/c2ccc([N+](=O)[O-])cc2)cc1
inactive: dose: 100.0 mg/kg/injection, schedule: Q04DX002 (ip), vehicle: saline with Tween-80 100 % of control | dose: 200.0 mg/kg/injection, schedule: Q04DX002 (ip), vehicle: saline with Tween-80 94 % of control | dose: 400.0 mg/kg/injection, schedule: Q04DX002 (ip), vehicle: saline with Tween-80 99 % of control

COc1ccccc1C1CCCCC1=O (configuration not stated)
inactive: [2] 105 % of control | [3] 96 % of control | [4] 89 % of control

COC(=O)C12C(=CCP1(C)=O)C(c1ccccc1)=NN2c1ccccc1 (configuration not stated)
inactive: dose: 12.5 mg/kg/injection, schedule: Q04DX002 (ip), vehicle: saline with Tween-80 92 % of control | dose: 25.0 mg/kg/injection, schedule: Q04DX002 (ip), vehicle: saline with Tween-80 95 % of control

O=C(NCCCCN1CC1)C(=O)Nc1ccccc1
inactive: dose: 12.5 mg/kg/injection, schedule: Q04DX003 (ip), vehicle: Klucel (hydroxypropylcellulose) (HPC) 97 % of control | dose: 25.0 mg/kg/injection, schedule: Q04DX003 (ip), vehicle: Klucel (hydroxypropylcellulose) (HPC) 93 % of control | dose: 50.0 mg/kg/injection, schedule: Q04DX003 (ip), vehicle: Klucel (hydroxypropylcellulose) (HPC) 98 % of control | [15] 103 % of control

S=C([S-])N1CCCCC1.S=C([S-])N1CCCCC1.[Zn]
inactive: dose: 18.8 mg/kg/injection, schedule: Q04DX003 (ip), vehicle: saline 92 % of control | dose: 37.5 mg/kg/injection, schedule: Q04DX003 (ip), vehicle: saline 92 % of control | [1] 88 % of control | dose: 75.0 mg/kg/injection, schedule: Q04DX003 (ip), vehicle: saline 96 % of control

O=[N+]([O-])c1ccccn1
inactive: dose: 6.25 mg/kg/injection, schedule: Q01DX009 (ip), vehicle: saline 102 % of control | dose: 6.25 mg/kg/injection, schedule: Q04DX003 (ip), vehicle: saline 95 % of control | dose: 12.5 mg/kg/injection, schedule: Q01DX009 (ip), vehicle: saline 102 % of control | dose: 12.5 mg/kg/injection, schedule: Q04DX003 (ip), vehicle: saline 98 % of control | dose: 25.0 mg/kg/injection, schedule: Q04DX003 (ip), vehicle: saline 93 % of control | dose: 75.0 mg/kg/injection, schedule: Q01DX001 (ip), vehicle: other 98 % of control

O=C(CC1(O)CCCCC1)Nc1ccccc1
inactive: [18] 100 % of control | [9] 97 % of control | [10] 101 % of control | [11] 97 % of control

NC(Cc1c[nH]c2cc(F)ccc12)C(=O)O (configuration not stated)
inactive: dose: 100.0 mg/kg/injection, schedule: Q01DX009 (ip), vehicle: other 97 % of control | dose: 200.0 mg/kg/injection, schedule: Q01DX009 (ip), vehicle: other 96 % of control | dose: 400.0 mg/kg/injection, schedule: Q01DX009 (ip), vehicle: other 97 % of control

O=c1[nH]c2ccc(I)cc2c(=O)o1
inactive: [5] 100 % of control | [7] 100 % of control | dose: 400.0 mg/kg/injection, schedule: Q01DX009 (ip), vehicle: saline with Tween-80 101 % of control

COc1cccc(CN(C)C)c1C(C)(C)O
inactive: [18] 97 % of control | [9] 95 % of control

C=CCOC(=O)CCCCC(=O)OCC=C
inactive: [5] 94 % of control

O=C1OCCN1S(=O)(=O)c1ccc([N+](=O)[O-])cc1
inactive: dose: 3.12 mg/kg/injection, schedule: Q01DX009 (ip), vehicle: Klucel (hydroxypropylcellulose) (HPC) 94 % of control | dose: 6.25 mg/kg/injection, schedule: Q01DX009 (ip), vehicle: Klucel (hydroxypropylcellulose) (HPC) 93 % of control | dose: 12.5 mg/kg/injection, schedule: Q01DX009 (ip), vehicle: Klucel (hydroxypropylcellulose) (HPC) 94 % of control | dose: 100.0 mg/kg/injection, schedule: Q01DX001 (ip), vehicle: Klucel (hydroxypropylcellulose) (HPC) 86 % of control | [15] 97 % of control | dose: 200.0 mg/kg/injection, schedule: Q01DX001 (ip), vehicle: Klucel (hydroxypropylcellulose) (HPC) 91 % of control | [16] 92 % of control | [17] 88 % of control

CC1(C)CC(C(N)=O)C(=O)O1 (configuration not stated)
inactive: [6] 101 % of control | [8] 103 % of control | dose: 400.0 mg/kg/injection, schedule: Q04DX003 (ip), vehicle: saline with Tween-80 101 % of control

CC(=O)c1ccc(OCc2ccccc2)cc1O
inactive: [12] 111 % of control | [13] 100 % of control | [14] 100 % of control
